Data taken from ChEMBL document CHEMBL3632591, “Discovery and structural diversity of the hepatitis C virus NS3/4A serine protease inhibitor series leading to clinical candidate IDX320” (Bioorg Med Chem Lett, 2015).
pIC50: −log10 of the molar value.

Legend:
Cytochrome P450 1A2 = biological target: T1, Cytochrome P450 1A2 (Homo sapiens, UniProt P05177); experiment: Inhibition of human CYP1A2; assay type: ADME
T1 sequence (P05177 whole entry): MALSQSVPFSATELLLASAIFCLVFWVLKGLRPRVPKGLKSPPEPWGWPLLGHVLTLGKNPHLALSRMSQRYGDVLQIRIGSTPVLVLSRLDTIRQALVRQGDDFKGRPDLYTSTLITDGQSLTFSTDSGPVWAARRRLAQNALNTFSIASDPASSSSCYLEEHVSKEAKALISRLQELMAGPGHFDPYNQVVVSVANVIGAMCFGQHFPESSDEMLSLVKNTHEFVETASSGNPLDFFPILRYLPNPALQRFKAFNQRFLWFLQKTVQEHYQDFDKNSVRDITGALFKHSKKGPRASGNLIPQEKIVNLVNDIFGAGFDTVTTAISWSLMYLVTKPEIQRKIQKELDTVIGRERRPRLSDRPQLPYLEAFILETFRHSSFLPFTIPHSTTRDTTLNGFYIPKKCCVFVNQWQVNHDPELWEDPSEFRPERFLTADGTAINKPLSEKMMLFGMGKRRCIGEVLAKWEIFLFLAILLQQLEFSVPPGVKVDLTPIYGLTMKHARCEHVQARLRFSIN

[1] = Cytotoxicity against rat hepatocytes; assay type: cell-based, Hepatocyte
[2] = Half life in Sprague-Dawley rat at 2 mg/kg, iv administered as single dose; assay type: ADME, organism-based; settings: in vivo
[3] = Inhibition of recombinant full length HCV genotype 1b NS3/4A protease by FRET assay; parameters: species or system Hepatitis C virus subtype 1b
[4] = Oral bioavailability in CD-1 mouse at 2 mg/kg administered as single dose; assay type: ADME, organism-based; settings: in vivo
Cytochrome P450 2D6 = Cytochrome P450 2D6 (Homo sapiens, UniProt P10635); experiment: Inhibition of human CYP2D6; assay type: ADME
[5] = Half life in CD-1 mouse at 2 mg/kg, iv administered as single dose measured after 24 hrs; assay type: ADME, organism-based; settings: in vivo
[6] = biological target: Voltage-gated inwardly rectifying potassium channel KCNH2 (Homo sapiens, UniProt Q12809); experiment: Inhibition of human ERG expressed in HEK293 cells; assay type: cell-based
[7] = Plasma concentration in CD-1 mouse at 2 mg/kg, po administered as single dose measured after 24 hrs; assay type: ADME, organism-based
[8] = AUC (infinity) in Cynomolgus monkey at 2 mg/kg, po administered as single dose; assay type: ADME, organism-based, Macaca fascicularis; parameters: dose 2 mg/kg, route oral, time infinity; settings: in vivo
[9] = Efflux ratio of permeability in human Caco2 cells; assay type: ADME, cell-based; settings: Caco-2
[10] = Apparent permeability across human Caco2 cells; assay type: ADME, cell-based; settings: Caco-2
Mus musculus = experiment: Toxicity in mouse assessed as effect on renal function at 250 mg/kg, po administered as single dose; assay type: organism-based; settings: in vivo
[11] = Clearance in Sprague-Dawley rat at 2 mg/kg, iv administered as single dose; assay type: ADME, organism-based; settings: in vivo
Cytochrome P450 3A4 = Cytochrome P450 3A4 (Homo sapiens, UniProt P08684); experiment: Inhibition of human CYP3A4; assay type: ADME
[12] = Oral bioavailability in Cynomolgus monkey at 2 mg/kg administered as single dose; assay type: ADME, organism-based, Macaca fascicularis; settings: in vivo
[13] = Cytotoxicity against mouse hepatocytes; assay type: cell-based, Hepatocyte
[14] = Cmax in Sprague-Dawley rat plasma at 2 mg/kg, iv administered as single dose measured after 8 hrs; assay type: ADME, organism-based; parameters: dose 2 mg/kg, route intravenous
[15] = Half life in Sprague-Dawley rat at 10 mg/kg, po administered as single dose; assay type: ADME, organism-based; settings: in vivo

Sequence of Voltage-gated inwardly rectifying potassium channel KCNH2 (Q12809 whole entry): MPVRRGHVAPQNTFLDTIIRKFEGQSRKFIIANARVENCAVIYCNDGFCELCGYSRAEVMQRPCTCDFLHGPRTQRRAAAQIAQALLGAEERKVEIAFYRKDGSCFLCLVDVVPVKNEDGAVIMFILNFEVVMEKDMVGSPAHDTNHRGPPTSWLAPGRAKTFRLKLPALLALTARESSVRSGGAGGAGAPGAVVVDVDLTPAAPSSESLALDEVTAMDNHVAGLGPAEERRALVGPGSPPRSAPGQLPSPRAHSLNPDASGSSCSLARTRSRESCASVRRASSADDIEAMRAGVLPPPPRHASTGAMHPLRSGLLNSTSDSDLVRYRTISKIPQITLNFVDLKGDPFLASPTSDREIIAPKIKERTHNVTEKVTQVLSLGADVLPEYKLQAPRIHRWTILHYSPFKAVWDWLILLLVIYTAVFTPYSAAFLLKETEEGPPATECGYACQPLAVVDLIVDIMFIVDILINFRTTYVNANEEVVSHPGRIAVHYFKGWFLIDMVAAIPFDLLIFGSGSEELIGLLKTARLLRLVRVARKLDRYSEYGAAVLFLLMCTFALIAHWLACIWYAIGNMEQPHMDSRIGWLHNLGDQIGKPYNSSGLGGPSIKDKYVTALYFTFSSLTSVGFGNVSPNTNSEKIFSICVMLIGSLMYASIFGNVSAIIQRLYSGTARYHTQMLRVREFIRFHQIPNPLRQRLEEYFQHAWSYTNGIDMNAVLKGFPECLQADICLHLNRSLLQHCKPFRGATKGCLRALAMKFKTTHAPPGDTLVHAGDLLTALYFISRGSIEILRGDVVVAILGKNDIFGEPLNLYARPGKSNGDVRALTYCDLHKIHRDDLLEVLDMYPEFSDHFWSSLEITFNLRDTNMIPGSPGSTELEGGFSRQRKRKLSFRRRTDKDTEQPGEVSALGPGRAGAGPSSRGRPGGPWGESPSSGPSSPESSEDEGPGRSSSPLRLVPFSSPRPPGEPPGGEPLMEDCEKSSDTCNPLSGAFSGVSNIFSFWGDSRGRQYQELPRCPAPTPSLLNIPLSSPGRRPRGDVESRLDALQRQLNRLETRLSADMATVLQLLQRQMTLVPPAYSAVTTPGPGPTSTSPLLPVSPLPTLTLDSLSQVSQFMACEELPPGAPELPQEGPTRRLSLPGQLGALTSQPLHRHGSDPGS
Sequence of Cytochrome P450 2D6 (P10635 whole entry): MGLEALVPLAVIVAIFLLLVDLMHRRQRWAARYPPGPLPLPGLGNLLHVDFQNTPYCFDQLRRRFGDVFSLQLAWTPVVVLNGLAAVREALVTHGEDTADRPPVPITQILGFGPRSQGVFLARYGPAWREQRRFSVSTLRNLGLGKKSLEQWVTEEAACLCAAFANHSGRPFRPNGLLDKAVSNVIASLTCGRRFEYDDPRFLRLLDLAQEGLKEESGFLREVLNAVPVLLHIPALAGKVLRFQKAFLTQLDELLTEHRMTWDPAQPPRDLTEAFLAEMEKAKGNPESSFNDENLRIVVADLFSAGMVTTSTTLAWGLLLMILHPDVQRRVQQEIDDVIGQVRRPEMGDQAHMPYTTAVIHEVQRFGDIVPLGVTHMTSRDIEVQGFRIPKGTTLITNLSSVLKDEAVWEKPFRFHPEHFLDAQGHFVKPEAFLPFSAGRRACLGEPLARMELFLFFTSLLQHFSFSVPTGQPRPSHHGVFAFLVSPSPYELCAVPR
Sequence of Cytochrome P450 3A4 (P08684 whole entry): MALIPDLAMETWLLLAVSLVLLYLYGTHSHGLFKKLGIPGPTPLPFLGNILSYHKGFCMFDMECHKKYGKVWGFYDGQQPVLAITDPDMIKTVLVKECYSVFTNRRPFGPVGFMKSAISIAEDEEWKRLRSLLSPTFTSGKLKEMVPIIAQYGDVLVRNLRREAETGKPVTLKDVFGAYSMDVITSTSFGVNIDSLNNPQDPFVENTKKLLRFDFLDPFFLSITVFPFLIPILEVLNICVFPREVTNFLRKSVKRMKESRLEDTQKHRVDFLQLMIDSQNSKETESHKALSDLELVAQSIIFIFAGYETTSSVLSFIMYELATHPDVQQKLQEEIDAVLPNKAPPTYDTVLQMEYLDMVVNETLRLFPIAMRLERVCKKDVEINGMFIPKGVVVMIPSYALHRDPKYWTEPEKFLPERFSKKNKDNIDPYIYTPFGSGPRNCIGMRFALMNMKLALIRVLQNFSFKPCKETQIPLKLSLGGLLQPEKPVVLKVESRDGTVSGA

COc1ccc2c(O[C@H]3CCN4C(=O)N(C)CCCCC=C[C@@H]5C[C@@]5(C(=O)NS(=O)(=O)C5(C)CC5)NC(=O)[C@@H]4C3)cc(-c3nc(C(F)(F)F)cs3)nc2c1C
pIC50 (Cytochrome P450 1A2): ≤ 5.00 | CC50 [1]: > 10 µM | half-life [2]: 1.5 h | pIC50 [3]: 9.30 | bioavailability [4]: 34.7% | pIC50 (Cytochrome P450 2D6): ≤ 5.00 | half-life [5]: 6.3 h | inhibition (INH) [6]: Not Active | concentration at 24 h [7]: 1.5 ng/mL | AUC(0-inf) [8]: 8920 ng·h/mL | efflux ratio [9]: 2.7 | Papp [10]: 1.8 ×10⁻⁶ cm/s | Activity (Mus musculus): Non-toxic | clearance [11]: 18.8 mL/min/kg | pIC50 (Cytochrome P450 3A4): ≤ 5.00 | bioavailability [12]: 107% | CC50 [13]: > 10 µM | Cmax [14]: 2060 ng/mL | half-life [15]: 3.6 h
